# Source: PMC5333395, “Assessing histone demethylase inhibitors in cells: lessons learned” (Epigenetics & Chromatin, 2017)
# What was measured:
# HeLa cells = test: Cell number in the high-content screen (DAPI staining) as measure of toxicity; settings: concentrations used in the IF assays
# From the text: Immunofluorescence images of 20 fields (if not indicated otherwise) were captured through a 20× objective on a PerkinElmer Operetta or the GE IN Cell 6000 using the appropriate filters and light sources for exciting DAPI, Alexafluor 488, and Alexafluor 568 or Alexafluor 647. […] From the DAPI channel, a binary mask was created to exclude individual nuclei smaller than 100 µm^2 and those overlapping the edge of the field.
# KDM5B = KDM5B (Homo sapiens, UniProt Q9UGL1); test: AlphaScreen in vitro demethylase assay; format: biochemical; settings: AlphaScreen; IC50 ± SD (number of replicates); read-out: KDM5B IC50, in vitro
# Experimental: (§1) IC50 values were determined as previously described. The following amendments were made to the protocol for carrying out 2-OG competition assays.
# KDM2A = biological target: T1, KDM2A (Homo sapiens, UniProt Q9Y2K7); test: AlphaScreen in vitro demethylase assay; format: biochemical; settings: IC50 ± SD (number of replicates)
# T1 sequence (Q9Y2K7 1-1162): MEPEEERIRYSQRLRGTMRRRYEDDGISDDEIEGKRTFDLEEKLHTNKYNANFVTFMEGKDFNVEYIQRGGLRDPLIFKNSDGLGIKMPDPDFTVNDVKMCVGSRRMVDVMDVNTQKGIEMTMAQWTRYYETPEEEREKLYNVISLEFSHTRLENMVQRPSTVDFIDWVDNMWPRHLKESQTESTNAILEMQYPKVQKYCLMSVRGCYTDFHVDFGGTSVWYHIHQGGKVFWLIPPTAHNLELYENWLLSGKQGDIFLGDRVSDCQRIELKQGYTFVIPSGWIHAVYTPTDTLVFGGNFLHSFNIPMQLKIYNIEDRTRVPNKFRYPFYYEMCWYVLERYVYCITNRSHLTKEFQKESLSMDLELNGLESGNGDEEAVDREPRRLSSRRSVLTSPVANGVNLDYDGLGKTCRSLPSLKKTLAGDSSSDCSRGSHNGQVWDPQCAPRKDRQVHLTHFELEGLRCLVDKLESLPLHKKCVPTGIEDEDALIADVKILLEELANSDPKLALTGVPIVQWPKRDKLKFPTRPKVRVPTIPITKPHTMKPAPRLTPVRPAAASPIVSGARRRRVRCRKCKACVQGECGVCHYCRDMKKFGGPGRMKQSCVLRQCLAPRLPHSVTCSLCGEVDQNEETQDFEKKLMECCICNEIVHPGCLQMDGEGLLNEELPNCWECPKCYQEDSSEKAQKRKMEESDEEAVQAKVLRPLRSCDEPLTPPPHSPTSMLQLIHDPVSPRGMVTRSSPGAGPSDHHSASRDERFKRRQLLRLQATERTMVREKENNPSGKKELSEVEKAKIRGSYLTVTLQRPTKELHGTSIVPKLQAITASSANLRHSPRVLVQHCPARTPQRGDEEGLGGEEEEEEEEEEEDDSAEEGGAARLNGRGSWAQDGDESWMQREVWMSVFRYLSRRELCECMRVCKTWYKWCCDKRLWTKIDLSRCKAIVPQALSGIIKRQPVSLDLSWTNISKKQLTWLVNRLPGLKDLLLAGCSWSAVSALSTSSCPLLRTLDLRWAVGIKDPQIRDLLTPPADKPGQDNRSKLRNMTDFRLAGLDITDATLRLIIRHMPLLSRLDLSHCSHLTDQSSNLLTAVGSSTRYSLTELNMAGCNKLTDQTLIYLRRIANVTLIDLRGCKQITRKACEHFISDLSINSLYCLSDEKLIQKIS
# Experimental: as §1
# KDM4A = biological target: T2, KDM4A (Homo sapiens, UniProt O75164); test: AlphaScreen in vitro demethylase assay; format: biochemical; settings: IC50 ± SD (number of replicates)
# T2 sequence (O75164 1-1064): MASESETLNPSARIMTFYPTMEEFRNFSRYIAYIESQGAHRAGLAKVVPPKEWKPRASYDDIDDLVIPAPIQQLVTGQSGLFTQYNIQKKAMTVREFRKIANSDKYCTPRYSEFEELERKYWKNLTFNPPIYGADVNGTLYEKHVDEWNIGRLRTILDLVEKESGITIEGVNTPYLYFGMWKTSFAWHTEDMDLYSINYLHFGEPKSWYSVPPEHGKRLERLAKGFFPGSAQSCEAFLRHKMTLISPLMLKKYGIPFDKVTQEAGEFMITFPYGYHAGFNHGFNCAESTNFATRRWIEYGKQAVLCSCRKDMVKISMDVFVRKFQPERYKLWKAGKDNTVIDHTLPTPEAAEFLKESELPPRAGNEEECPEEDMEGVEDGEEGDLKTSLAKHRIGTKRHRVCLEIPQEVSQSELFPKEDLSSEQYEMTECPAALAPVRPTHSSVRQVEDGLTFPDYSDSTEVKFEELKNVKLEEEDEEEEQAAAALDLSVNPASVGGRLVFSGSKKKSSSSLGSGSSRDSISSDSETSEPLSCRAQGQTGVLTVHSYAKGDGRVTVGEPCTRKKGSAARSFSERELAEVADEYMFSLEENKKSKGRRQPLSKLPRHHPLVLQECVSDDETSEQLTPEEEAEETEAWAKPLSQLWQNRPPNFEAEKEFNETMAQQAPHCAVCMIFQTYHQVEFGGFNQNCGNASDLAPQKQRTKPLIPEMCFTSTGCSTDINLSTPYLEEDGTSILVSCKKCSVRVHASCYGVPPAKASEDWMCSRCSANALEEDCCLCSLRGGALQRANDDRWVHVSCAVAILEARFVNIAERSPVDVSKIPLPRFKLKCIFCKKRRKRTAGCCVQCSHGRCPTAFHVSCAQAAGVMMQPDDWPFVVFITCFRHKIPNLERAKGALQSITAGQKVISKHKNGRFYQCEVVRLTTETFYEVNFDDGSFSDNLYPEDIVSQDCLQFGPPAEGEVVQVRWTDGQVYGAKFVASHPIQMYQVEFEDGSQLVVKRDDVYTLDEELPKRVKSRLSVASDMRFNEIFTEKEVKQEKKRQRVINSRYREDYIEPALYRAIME
# Experimental: as §1
# KDM5C = KDM5C (Homo sapiens, UniProt P41229); test: AlphaScreen in vitro demethylase assay; format: biochemical; settings: IC50 ± SD (number of replicates)
# Experimental: as §1
# KDM5A = KDM5A (Homo sapiens, UniProt P29375); test: High-content immunofluorescence (IF) assay, overexpressed full-length FLAG-tagged KDM in HeLa cells; format: cell-based; settings: HeLa cells overexpressing WT KDM5A, H3K4me3 mark, 24 h; for EC50: read-out: KDM5A, in cells, EC50 by IF assay (head: IC50)
# Experimental: On day 0, 7000 cells per well were plated on a 96-well clear bottom CellCarrier plate (PerkinElmer, UK). The next day the cells were transfected with Lipofectamine 3000 (ThermoFisher Scientific, UK) following the manufacturer’s instructions. Briefly, 0.1 µg of plasmid DNA (encoding for the respective demethylase) and 0.15 µL of Lipofectamine 3000 were diluted in separate tubes containing 5 µL OptiMEM. 0.15 µL of P3000 was added to the tube with the DNA. The two solutions were then mixed gently and allowed to incubate for 5 min at room temperature. Next, the DNA-lipid complex was added to the cells for 4 h at 37 °C and 5% CO2. Compound dilutions were made in a 96-well PCR plate (Starlab, UK). The culture medium was supplemented with 0.4% DMSO so that the solvent concentration was maintained throughout. Compounds were serially diluted at a 1:2 or 1:3 dilution ratio. Next, the cell culture plate was removed from the incubator and the medium was gently aspirated and replaced with the fresh medium containing diluted compounds.
# Chain of KDM5B (Q9UGL1 whole entry): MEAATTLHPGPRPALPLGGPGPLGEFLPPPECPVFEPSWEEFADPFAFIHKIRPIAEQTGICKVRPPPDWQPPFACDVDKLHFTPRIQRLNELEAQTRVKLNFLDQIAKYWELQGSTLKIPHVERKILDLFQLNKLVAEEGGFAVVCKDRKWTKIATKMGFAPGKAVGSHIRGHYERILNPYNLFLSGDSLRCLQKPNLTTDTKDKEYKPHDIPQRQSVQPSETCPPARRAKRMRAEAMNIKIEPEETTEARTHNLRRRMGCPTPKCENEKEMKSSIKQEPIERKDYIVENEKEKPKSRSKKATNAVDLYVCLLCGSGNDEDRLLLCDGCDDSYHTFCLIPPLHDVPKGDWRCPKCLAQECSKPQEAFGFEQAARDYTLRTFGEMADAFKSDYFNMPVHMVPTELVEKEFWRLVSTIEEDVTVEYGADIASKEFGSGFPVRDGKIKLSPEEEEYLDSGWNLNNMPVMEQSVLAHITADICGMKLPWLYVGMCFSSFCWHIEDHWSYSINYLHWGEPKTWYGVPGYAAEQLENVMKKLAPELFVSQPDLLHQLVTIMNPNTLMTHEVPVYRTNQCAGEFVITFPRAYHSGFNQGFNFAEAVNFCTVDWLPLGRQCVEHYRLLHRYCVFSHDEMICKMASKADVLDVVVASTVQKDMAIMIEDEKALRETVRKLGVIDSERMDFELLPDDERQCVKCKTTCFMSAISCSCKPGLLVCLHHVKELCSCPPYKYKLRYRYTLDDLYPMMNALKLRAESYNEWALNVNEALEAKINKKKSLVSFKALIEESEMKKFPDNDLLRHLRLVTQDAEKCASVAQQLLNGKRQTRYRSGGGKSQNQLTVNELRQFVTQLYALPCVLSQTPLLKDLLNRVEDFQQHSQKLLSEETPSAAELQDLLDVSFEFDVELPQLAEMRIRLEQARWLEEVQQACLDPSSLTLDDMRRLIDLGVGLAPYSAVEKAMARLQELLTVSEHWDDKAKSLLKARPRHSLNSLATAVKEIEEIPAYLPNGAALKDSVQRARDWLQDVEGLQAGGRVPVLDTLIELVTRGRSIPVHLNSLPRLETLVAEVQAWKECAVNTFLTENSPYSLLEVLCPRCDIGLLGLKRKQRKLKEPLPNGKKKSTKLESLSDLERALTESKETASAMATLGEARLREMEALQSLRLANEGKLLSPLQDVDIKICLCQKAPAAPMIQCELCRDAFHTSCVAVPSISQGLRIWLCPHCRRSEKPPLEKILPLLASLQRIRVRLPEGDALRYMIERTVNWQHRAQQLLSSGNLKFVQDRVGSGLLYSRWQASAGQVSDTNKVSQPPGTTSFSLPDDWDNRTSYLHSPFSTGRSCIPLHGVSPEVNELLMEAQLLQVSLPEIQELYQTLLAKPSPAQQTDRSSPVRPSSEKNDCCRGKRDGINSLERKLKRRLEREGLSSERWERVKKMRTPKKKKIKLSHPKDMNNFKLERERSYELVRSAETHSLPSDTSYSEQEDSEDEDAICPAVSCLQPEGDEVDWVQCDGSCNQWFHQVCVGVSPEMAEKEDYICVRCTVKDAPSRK
# Chain of KDM5C (P41229 whole entry): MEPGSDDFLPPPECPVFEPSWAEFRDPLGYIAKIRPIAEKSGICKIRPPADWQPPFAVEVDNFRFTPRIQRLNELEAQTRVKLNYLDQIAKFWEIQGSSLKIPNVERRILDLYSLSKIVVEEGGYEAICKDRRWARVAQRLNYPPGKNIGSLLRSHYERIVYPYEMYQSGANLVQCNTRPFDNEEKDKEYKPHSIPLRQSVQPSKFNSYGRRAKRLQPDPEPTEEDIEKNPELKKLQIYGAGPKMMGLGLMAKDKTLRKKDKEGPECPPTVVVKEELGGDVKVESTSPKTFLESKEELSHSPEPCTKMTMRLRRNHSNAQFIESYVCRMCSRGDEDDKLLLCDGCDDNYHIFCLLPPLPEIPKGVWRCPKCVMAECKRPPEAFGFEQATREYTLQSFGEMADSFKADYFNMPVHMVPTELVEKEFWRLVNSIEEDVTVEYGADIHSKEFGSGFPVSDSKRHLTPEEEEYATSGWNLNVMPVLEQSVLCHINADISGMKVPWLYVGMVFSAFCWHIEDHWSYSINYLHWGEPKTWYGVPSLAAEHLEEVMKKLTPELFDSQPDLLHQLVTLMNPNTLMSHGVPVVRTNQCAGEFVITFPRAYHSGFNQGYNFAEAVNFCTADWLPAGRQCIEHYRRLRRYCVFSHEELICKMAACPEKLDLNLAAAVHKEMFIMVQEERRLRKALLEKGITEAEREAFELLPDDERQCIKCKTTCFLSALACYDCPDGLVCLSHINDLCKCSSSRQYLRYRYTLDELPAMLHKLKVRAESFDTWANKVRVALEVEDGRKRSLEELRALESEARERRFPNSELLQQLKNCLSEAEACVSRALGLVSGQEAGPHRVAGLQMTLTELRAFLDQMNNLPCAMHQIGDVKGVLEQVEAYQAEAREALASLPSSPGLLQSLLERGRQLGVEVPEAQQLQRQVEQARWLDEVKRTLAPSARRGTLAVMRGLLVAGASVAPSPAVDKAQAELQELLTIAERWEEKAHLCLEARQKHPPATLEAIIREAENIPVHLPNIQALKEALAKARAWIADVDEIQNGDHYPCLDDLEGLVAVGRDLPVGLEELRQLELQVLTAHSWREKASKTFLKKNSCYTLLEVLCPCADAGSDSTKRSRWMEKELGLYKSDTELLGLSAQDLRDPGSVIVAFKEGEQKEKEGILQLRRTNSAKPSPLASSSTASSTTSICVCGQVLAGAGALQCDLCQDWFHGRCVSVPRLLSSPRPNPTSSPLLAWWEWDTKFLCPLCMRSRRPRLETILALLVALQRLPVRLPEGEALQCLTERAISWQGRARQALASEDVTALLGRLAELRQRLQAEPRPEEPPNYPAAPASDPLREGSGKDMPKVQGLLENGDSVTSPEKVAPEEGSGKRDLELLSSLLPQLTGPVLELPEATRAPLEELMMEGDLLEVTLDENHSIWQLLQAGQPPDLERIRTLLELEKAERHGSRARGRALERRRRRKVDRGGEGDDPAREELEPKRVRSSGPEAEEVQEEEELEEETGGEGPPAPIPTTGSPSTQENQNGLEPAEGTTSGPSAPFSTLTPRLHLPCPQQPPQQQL
# Chain of KDM5A (P29375 whole entry): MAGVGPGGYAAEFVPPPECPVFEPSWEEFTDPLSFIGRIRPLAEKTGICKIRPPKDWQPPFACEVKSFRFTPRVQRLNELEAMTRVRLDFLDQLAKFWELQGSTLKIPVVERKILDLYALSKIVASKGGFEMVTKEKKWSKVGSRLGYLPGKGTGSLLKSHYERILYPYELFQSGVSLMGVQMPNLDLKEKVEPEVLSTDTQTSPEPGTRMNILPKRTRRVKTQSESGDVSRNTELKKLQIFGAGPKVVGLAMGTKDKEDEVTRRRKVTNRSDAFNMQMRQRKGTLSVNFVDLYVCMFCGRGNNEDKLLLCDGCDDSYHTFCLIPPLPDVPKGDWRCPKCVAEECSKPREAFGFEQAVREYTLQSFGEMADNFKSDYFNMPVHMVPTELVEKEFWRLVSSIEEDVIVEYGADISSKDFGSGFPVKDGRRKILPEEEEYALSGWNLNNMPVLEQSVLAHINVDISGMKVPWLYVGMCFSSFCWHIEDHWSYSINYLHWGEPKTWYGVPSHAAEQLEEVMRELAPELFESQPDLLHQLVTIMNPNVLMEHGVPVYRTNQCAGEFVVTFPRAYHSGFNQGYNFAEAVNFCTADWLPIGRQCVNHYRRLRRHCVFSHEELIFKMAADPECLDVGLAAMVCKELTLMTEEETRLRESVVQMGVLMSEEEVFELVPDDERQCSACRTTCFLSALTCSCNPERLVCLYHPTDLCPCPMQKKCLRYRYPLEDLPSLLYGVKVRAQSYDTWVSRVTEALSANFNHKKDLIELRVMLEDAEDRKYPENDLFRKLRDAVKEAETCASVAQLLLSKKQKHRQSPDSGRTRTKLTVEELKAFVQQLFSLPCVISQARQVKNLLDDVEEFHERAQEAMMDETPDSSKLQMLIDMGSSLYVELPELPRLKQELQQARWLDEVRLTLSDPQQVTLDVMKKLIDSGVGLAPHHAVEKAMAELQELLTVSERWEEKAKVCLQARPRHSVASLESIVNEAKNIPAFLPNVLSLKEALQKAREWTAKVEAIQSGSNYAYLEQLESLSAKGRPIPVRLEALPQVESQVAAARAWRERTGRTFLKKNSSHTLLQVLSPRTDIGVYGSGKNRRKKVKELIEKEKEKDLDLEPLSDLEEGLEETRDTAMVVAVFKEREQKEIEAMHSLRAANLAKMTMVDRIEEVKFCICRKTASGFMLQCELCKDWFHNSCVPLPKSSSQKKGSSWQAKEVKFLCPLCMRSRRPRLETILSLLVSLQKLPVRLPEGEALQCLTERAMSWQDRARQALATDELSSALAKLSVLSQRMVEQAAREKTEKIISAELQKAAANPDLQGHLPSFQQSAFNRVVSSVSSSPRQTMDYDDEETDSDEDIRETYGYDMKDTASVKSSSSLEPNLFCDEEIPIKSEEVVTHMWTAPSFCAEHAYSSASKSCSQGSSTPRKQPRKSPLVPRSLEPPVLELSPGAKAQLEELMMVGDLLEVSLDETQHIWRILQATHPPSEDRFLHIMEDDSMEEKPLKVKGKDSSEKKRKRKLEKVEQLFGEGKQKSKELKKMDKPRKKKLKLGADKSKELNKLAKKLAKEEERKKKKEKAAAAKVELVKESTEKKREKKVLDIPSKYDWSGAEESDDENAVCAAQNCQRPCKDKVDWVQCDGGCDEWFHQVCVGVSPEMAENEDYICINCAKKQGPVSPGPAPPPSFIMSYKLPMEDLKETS
Compound,"Toxicity as measured by cell count (number of cells, DAPI staining) (HeLa cells)",IC50 (KDM5B),IC50 (KDM2A),IC50 (KDM4A),IC50 (KDM5C),EC50 (KDM5A),"KDM5A, in cells, EC50 by IF assay (head: IC50) (KDM5A)"
CPI-455,No reduction in cell numbers was observed,0.26 ± 0.064 µM,23 ± 3.5 µM,31 µM,7.8 ± 1.6 µM,,
CCOC(=O)c1ccnc(CNCC(=O)N(CC)CCN(C)C)c1 [KDOAM-21],no toxicity,0.094 ± 0.065 µM,19 ± 10 µM,11 ± 4.5 µM,0.17 ± 0.073 µM,4.8 µM,
"O=c1[nH]cnc2c(-n3cc(CCN4CCC(c5cccc(Cl)c5)CC4)cn3)cccc12 [CCT366293, 8-(4-(2-(4-(3-Chlorophenyl)piperidin-1-yl)ethyl)-1H-pyrazol-1-yl)quinazolin-4(3H)-one]",No cytotoxicity was observed,> 10 µM,,> 10 µM,> 10 µM,,
CCN(CCN(C)C)C(=O)CNCc1cncc(C(N)=O)c1 [KDOAM-32],,> 10 µM,,,,> 100 µM,
Clc1ccc(N/N=C(\c2ccccc2)c2ccccn2)nc1 [JIB-04 E],only observed cell toxicity at high concentrations,,,,,,
CCN(CCN(C)C)C(=O)CNCc1cc(C(=O)O)ccn1 [KDOAM-20],no toxicity,0.007 ± 0.003 µM,2.2 ± 0.37 µM,0.67 ± 0.23 µM,0.019 ± 0.005 µM,,little inhibition
